{"source": "patent US11084798B1", "about": "“2-oxoquinazoline derivatives as methionine adenosyltransferase 2A inhibitors” (IDEAYA BIOSCIENCES, INC., priority 2018, dated 2021)", "biological_target": "hMAT2A (Homo sapiens (Human), UniProt P31153)", "sequence (P31153 whole entry)": "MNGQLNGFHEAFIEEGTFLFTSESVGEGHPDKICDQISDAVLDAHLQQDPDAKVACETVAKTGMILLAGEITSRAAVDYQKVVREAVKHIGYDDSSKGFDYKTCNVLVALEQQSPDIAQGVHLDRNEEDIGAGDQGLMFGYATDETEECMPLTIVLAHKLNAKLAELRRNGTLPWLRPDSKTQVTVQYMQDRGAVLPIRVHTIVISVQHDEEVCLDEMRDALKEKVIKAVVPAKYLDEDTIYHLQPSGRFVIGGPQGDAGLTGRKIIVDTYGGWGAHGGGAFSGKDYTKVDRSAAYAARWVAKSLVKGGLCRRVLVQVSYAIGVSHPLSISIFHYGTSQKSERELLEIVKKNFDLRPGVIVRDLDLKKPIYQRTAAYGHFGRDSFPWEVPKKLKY", "assay": "Malachite Green Assay (MAT2A enzyme inhibition)", "assay_type": "biochemical", "conditions": "hMAT2A 50 nM, substrates 500 uM each", "procedure": "The ability of the compound of present disclosure to inhibit MAT2A enzyme was determined using the Malachite Green or Phosphate Sensor Fluorescence Assay described below.\nL-methionine Substrate: Alfa Aesar catalog #J61904\nATP Substrate: Alfa Aesar cat #J60336\nMalachite Green Detection Reagent: Millipore Sigma catalog #MAK307-1KT\nAssay buffer: 50 mM Tris, pH 7.5/50 mM KCl/10 mM MgCl2/0.01% Brij-35/1 mM DTT/0.1% BGG\nThe plate was centrifuged at 1000 rpm for 1 minute and then incubated at room temperature for 1 hour. 5 μL of malachite green detection reagent was added to all the test wells and the plate was centrifuged at 1000 rpm for 1 minute and then incubated at room temperature for 30 minutes. The plate was read for absorbance at 620 nm on a plate reader (e.g., Infinite M1000)."}
{"substance": "7-chloro-4-(dimethylamino)-1-(3-(2-phenoxyethyl)phenyl)quinazolin-2(1H)-one [Example 10]", "values": [{"measurement": "IC50", "value": "200 to 500", "unit": "nM"}]}
